Consider two molecules from ChEMBL document CHEMBL4507291 (2021).

SMILES strings stand for the structures.

The target in test [1] is AP2-associated protein kinase 1 (Homo sapiens) (UniProt Q2M2I8).
Test [2] addresses Ankyrin repeat and protein kinase domain-containing protein 1 (Homo sapiens) (UniProt Q8NFD2).
Test [3] addresses Cyclin-dependent kinase 4 (Homo sapiens) (UniProt P11802).
Test [4] concerns the target Macrophage colony-stimulating factor 1 receptor (Homo sapiens) (UniProt P07333).
Test [5] deals with Casein kinase I isoform alpha (Homo sapiens) (UniProt P48729).
For test [6], the target named is Casein kinase I isoform alpha-like (Homo sapiens) (UniProt Q8N752).
Test [7] has as its target T1, Mitogen-activated protein kinase 12 (Homo sapiens) (UniProt P53778).
T1 sequence (whole entry): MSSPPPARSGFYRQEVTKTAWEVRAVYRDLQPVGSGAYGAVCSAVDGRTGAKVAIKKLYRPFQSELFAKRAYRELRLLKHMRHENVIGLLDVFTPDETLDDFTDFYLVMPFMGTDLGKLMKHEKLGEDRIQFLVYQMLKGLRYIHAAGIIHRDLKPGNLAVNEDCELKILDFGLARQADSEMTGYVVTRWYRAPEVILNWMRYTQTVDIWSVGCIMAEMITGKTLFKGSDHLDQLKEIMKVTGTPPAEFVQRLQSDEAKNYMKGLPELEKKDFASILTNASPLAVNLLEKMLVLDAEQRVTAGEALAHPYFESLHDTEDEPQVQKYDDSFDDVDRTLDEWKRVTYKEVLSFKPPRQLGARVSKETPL

The test system of test [8] is Phosphatidylinositol 4,5-bisphosphate 3-kinase catalytic subunit alpha isoform (Homo sapiens), P42336 [E545A].
Test [9] has as its target cAMP-dependent protein kinase catalytic subunit alpha (Homo sapiens) (UniProt P17612).
In test [10] the target is Receptor-interacting serine/threonine-protein kinase 2 (Homo sapiens) (UniProt O43353).
Test [11] concerns the target Receptor-interacting serine/threonine-protein kinase 4 (Homo sapiens) (UniProt P57078).
Test [12] has as its target SRSF protein kinase 1 (Homo sapiens) (UniProt Q96SB4).
Test [13] concerns the target T2, Mitogen-activated protein kinase kinase kinase 7 (Homo sapiens) (UniProt O43318).
T2 sequence (whole entry): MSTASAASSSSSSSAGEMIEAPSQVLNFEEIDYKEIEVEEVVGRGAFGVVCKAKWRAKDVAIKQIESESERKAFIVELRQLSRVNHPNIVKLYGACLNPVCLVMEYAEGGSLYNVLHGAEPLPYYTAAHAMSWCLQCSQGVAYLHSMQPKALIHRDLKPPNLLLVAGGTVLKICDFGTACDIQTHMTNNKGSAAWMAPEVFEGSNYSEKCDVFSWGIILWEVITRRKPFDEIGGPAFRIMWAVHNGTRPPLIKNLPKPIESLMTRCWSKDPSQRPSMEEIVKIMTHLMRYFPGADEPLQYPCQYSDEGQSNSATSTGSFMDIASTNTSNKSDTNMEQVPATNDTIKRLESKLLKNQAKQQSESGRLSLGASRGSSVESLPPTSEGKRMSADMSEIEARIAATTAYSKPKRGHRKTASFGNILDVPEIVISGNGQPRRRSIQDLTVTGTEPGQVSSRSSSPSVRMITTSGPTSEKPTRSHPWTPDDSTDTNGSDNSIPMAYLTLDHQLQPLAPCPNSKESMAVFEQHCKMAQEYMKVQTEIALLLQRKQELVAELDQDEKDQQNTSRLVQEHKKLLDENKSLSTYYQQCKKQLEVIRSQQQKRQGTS

In test [14] the target is High affinity nerve growth factor receptor (Homo sapiens) (UniProt P04629).
Test [15] has as its target Testis-specific serine/threonine-protein kinase 3 (Homo sapiens) (UniProt Q96PN8).
The target in test [16] is T3, Alpha-1A adrenergic receptor (Homo sapiens) (UniProt P35348).
T3 sequence (whole entry): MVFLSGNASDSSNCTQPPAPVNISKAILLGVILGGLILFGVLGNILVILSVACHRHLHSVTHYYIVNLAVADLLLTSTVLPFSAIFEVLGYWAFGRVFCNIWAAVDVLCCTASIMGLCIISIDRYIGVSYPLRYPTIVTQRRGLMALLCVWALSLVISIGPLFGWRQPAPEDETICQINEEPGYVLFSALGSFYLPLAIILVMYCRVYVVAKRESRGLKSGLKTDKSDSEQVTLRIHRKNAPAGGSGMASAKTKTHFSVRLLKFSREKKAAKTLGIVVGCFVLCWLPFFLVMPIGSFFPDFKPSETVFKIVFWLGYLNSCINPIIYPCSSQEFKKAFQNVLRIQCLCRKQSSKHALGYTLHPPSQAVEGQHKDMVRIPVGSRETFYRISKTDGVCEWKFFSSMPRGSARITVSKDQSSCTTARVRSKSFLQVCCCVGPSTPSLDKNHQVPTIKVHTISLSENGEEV
The conditions noted are these: Compound concentration 10.0 uM.

Setting [17] is: Compound concentration 100.0 nM.
Where [18] appears, read: Compound concentration 1000.0 nM.

Sequence of Casein kinase I isoform alpha (Homo sapiens) (P48729 2-337 limits assumed): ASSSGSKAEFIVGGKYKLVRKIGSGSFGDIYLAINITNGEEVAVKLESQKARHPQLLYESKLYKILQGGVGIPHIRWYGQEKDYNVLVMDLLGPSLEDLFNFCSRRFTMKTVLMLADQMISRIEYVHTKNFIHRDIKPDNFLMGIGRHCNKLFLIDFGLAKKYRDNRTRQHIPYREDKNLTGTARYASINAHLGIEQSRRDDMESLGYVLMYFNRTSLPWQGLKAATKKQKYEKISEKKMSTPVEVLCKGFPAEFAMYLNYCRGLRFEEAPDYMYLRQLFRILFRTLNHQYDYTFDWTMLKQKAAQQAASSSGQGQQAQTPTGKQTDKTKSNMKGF
Sequence of High affinity nerve growth factor receptor (Homo sapiens) (P04629 33-796 limits assumed): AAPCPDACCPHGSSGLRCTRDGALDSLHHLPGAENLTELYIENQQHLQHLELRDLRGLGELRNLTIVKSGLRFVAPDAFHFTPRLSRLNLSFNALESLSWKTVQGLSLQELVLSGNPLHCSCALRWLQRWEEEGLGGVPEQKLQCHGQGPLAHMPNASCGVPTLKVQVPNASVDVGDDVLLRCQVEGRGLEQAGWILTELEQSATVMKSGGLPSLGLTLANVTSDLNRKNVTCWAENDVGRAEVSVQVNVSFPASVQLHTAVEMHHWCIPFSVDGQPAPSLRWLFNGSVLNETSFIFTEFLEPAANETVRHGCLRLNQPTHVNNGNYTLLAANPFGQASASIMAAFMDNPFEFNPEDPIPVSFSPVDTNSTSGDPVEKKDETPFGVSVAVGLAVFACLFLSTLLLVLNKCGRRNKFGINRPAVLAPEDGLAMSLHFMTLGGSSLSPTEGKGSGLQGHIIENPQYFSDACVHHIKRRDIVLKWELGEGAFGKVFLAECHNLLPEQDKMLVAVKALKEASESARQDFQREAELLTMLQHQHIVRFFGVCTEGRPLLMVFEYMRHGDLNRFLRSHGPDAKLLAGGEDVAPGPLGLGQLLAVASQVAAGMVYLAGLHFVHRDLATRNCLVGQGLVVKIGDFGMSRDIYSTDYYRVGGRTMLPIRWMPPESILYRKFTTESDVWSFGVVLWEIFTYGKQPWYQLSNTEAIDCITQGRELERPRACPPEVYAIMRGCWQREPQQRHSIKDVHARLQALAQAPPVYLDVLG
Sequence of Macrophage colony-stimulating factor 1 receptor (Homo sapiens) (P07333 whole entry, canonical isoform): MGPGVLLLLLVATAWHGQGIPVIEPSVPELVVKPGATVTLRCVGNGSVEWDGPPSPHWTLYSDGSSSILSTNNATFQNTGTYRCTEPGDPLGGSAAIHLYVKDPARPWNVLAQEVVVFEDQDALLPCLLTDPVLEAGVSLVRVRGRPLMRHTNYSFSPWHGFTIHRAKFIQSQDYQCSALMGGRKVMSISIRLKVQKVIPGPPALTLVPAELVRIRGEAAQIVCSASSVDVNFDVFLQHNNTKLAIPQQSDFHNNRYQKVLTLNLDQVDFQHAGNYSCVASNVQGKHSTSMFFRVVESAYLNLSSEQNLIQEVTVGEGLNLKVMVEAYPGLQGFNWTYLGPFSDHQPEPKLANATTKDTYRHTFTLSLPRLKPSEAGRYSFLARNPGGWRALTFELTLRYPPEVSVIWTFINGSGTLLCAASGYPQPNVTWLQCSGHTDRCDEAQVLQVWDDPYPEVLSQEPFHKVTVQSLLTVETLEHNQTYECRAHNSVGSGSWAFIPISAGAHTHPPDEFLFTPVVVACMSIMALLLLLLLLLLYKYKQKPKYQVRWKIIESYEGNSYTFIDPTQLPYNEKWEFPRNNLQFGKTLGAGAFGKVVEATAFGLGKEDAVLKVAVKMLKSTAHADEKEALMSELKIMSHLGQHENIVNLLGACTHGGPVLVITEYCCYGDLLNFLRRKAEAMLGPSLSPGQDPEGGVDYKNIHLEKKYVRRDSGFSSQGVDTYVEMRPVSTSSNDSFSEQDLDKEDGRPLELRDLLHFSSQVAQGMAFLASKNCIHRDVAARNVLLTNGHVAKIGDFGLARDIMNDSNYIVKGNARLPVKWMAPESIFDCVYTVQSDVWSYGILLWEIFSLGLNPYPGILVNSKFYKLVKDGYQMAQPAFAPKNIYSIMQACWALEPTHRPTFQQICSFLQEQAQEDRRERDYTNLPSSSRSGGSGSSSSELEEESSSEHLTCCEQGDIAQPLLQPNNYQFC
Sequence of Testis-specific serine/threonine-protein kinase 3 (Homo sapiens) (Q96PN8 whole entry): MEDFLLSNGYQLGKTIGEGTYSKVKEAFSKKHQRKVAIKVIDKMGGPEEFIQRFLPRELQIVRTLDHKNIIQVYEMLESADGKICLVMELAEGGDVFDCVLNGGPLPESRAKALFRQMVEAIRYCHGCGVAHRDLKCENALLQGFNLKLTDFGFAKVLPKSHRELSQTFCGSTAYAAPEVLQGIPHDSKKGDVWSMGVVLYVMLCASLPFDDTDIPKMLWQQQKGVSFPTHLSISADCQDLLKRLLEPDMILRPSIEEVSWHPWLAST
Sequence of SRSF protein kinase 1 (Homo sapiens) (Q96SB4 whole entry): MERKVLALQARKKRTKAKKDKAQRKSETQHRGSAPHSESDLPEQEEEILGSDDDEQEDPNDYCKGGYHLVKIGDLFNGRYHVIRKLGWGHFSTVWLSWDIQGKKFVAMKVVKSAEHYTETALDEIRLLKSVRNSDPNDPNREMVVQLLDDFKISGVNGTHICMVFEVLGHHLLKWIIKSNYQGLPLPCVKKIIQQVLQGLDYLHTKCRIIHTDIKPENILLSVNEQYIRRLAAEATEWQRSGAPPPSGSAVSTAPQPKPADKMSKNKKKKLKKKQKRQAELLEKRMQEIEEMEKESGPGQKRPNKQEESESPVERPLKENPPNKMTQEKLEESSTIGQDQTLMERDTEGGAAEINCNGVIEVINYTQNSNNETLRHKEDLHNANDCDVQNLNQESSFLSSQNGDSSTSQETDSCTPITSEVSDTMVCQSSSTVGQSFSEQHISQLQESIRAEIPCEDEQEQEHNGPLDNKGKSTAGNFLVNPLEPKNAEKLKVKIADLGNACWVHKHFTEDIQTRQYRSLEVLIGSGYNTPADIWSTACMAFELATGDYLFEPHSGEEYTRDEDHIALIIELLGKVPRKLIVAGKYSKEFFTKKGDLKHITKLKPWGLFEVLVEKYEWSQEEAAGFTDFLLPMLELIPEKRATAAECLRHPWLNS
Sequence of Cyclin-dependent kinase 4 (Homo sapiens) (P11802 whole entry): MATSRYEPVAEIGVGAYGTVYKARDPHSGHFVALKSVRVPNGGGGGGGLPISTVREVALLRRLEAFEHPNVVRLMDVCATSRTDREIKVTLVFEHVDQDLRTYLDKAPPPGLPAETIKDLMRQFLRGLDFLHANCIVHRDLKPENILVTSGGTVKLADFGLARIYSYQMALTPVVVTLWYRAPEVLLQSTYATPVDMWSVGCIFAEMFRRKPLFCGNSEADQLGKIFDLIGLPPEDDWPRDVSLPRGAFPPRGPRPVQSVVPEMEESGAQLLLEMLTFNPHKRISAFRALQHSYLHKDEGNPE
Sequence of AP2-associated protein kinase 1 (Homo sapiens) (Q2M2I8 whole entry, looked up, the tested form may be a part): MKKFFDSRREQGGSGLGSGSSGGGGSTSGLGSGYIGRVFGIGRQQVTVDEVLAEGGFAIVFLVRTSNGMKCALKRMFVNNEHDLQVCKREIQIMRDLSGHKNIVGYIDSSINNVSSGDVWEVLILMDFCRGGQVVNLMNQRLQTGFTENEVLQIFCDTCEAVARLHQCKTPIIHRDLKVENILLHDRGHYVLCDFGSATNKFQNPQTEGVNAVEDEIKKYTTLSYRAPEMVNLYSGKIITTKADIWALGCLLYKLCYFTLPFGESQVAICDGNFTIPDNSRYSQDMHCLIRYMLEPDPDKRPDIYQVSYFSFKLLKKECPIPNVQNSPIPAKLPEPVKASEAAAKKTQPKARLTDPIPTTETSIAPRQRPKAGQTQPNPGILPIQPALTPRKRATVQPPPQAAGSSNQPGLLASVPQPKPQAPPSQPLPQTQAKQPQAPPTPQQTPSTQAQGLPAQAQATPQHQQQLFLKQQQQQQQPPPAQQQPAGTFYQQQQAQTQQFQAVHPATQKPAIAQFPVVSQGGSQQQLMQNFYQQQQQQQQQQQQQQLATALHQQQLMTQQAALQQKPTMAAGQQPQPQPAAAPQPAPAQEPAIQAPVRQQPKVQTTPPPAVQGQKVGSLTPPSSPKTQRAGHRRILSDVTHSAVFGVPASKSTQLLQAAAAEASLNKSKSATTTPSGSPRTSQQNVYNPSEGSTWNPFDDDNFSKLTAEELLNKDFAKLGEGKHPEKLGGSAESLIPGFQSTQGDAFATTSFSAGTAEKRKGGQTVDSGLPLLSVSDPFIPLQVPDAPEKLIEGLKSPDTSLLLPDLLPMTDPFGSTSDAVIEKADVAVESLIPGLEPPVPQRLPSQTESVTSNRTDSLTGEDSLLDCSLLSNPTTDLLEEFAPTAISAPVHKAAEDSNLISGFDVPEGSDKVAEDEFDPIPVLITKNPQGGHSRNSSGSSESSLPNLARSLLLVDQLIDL
Sequence of Ankyrin repeat and protein kinase domain-containing protein 1 (Homo sapiens) (Q8NFD2 whole entry, the tested form may be a part): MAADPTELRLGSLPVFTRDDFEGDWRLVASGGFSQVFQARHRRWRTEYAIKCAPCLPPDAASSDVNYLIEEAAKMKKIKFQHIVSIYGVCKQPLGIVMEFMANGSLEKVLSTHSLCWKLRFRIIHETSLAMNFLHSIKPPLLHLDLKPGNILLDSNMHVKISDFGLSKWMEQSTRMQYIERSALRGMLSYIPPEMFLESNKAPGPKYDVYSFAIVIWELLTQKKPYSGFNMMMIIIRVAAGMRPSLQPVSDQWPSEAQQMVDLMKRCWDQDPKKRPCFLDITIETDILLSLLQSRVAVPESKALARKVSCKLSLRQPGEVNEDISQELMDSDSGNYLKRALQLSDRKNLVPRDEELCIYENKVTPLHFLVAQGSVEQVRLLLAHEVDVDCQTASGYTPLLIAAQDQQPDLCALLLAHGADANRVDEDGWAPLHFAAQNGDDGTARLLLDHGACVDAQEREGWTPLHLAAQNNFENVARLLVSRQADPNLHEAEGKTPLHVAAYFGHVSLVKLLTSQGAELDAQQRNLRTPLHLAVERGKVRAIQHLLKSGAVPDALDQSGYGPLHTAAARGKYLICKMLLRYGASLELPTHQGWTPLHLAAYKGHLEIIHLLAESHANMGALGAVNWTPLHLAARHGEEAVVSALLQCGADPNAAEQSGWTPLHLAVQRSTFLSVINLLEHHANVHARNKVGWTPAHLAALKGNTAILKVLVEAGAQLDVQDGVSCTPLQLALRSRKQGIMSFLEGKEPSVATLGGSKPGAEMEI

With `C[C@@H]1CN(c2cc(-c3n[nH]c4ccc(OC5(C)CC5)cc34)ncn2)C[C@H](C)O1` [MLi-2], the residual activity in test [1] (setting [17]) was 100%; in [2] (setting [17]), 79%; in test [3] (setting [17]) it was 68%; in [4] (setting [17]), 91%; in [5] (setting [17]) it was 73%; in test [6] (setting [17]), 100%. In addition, the residual activity is 96% in test [7] (setting [17]); 76% in [8] (setting [17]); 85% in test [9] (setting [17]); 100% in test [10] (setting [17]); 48% in test [11] (setting [17]); 100% in test [12] (setting [17]). Further, the residual activity in [13] (setting [17]) is 70%; in [14] (setting [17]) it was 73%; in test [15] (setting [17]), 79%. In test [16], the inhibition – broadly, the relative decrease from the control value, in per cent – is 3.49%.

Consider `C[C@@H]1CN(c2cc(-c3nn(C)c4ccc(OC5(C)CC5)cc34)ncn2)C[C@H](C)O1` [MLi-2-NC], for which the residual activity in test [1] (setting [18]) was 84%; in test [2] (setting [18]), 67%; in [3] (setting [18]), 71%; in [4] (setting [18]), 100%; in test [5] (setting [18]) it was 100%; in [6] (setting [18]), 78%. In addition, the residual activity in test [7] (setting [18]) is 100%; in [8] (setting [18]) it was 100%; in test [9] (setting [18]) it was 95%; in [10] (setting [18]), 100%; in [11] (setting [18]) it was 85%; in test [12] (setting [18]) it was 88%. For the same molecule, the residual activity in test [13] (setting [18]) is 89%; in test [14] (setting [18]), 76%; in test [15] (setting [18]) it was 75%. For the same molecule, the inhibition in test [16] is -3.6%.
